Source: publication PMC5187517, “Pectocin M1 (PcaM1) Inhibits Escherichia coli Cell Growth and Peptidoglycan Biosynthesis through Periplasmic Expression” (Antibiotics, 2016)

Target: T1, pectocin M1 (PcaM1) (Pectobacterium carotovorum, UniProt C6DJ69)
T1 construct: gene PC1_2303; full-length, C-terminal Arg-Ser-His6 tag kept, initiator Met lost; expressed in E. coli C43(DE3) from pMLD365; monomer; theoretical mass 30,401 Da with tag (observed m/z 30,266); plant-like ferredoxin domain plus cytotoxic domain
T1 sequence (C6DJ69 2-268): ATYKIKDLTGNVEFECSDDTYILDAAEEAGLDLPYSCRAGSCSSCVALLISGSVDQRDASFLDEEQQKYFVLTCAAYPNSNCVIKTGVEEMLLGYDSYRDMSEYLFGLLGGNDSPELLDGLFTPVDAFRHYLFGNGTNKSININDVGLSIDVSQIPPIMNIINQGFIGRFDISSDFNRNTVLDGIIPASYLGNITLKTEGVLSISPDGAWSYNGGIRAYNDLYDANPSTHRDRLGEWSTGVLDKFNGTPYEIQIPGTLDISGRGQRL
Experiment: radiolabelled lipid II hydrolysis, TLC with radioactivity scanner
Format: biochemical
Conditions: labelled compound ([14C] in GlcNAc moiety); 100 mM Tris-HCl pH 7.5, 20 mM MgCl2, 150 mM NaCl, 10 mM 2-mercaptoethanol, 0.2% DDM, 37 °C, lipid II 6–100 µM

## CC(=O)N[C@H]1[C@H](O[C@H]2[C@H](O[C@H](C)C(=O)N[C@@H](C)C(=O)N[C@H](CCC(=O)N[C@@H](CCC[C@@H](N)C(=O)O)C(=O)N[C@H](C)C(=O)N[C@H](C)C(=O)O)C(=O)O)[C@@H](NC(C)=O)[C@@H](OP(=O)(O)OP(=O)(O)OC/C=C(/C)CC/C=C(/C)CC/C=C(/C)CC/C=C(/C)CC/C=C(/C)CC/C=C(/C)CC/C=C(/C)CC/C=C(/C)CC/C=C(\C)CC/C=C(\C)CCC=C(C)C)O[C@@H]2CO)O[C@H](CO)[C@@H](O)[C@@H]1O [lipid II, C55-PP-MurNAc(L-Ala-γ-D-Glu-meso-A2pm-D-Ala-D-Ala)-GlcNAc]
  Km: 55 µM
